From ChEMBL document CHEMBL1201862, “PubChem BioAssay data set” (2004)
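Cells were grown in 96-well plates and exposed to each compound for 48 hours at five concentrations; endpoints were interpolated linearly between bracketing concentrations, or set to the highest concentration if not reached. The concentration for 50% growth inhibition is given as GI50.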 The source made the active and inactive calls. Rule as the data show it: active = GI50 up to about 1.1 µM and inactive = higher.

What was measured:
Assay in all cases: NCI anticancer screen, dose series, 48 h
DLD-1 = test system: DLD-1
DMS-114 = test system: DMS-114
HOP-18 = test system: HOP-18
M19-MEL = test system: M19-MEL
RXF 631 = test system: RXF 631
SNB-78 = test system: SNB-78
XF498 = test system: XF498
BT-549 = test system: BT-549
Hs-578T = test system: Hs-578T

Cc1ccc(C)c(NC(=O)CC2SC(Nc3ccccc3Cl)=NC2=O)c1 (centres undefined)
GI50 (DLD-1): 77.4 µM (inactive)
GI50 (DMS-114): 29.9 µM (inactive)
GI50 (HOP-18): > 100 µM (inactive)
GI50 (M19-MEL): 94.4 µM (inactive)
GI50 (RXF 631): > 100 µM (inactive)
GI50 (SNB-78): > 100 µM (inactive)
GI50 (XF498): > 100 µM (inactive)

CCc1cc2c(Nc3ccccc3)c3c(nc2s1)CCCC3
GI50 (DLD-1): 19.4 µM (inactive)
GI50 (DMS-114): 27.5 µM (inactive)
GI50 (HOP-18): > 100 µM (inactive)
GI50 (M19-MEL): 40.7 µM (inactive)
GI50 (RXF 631): 35.2 µM (inactive)
GI50 (SNB-78): 28.9 µM (inactive)
GI50 (XF498): 13.4 µM (inactive)

Nc1cc2c3c(cccc3c1)C(=O)N(CCN1CCN(CCN3C(=O)c4cccc5cc(N)cc(c45)C3=O)CC1)C2=O
GI50 (DMS-114): > 100 µM (inactive)
GI50 (HOP-18): > 100 µM (inactive)
GI50 (M19-MEL): > 100 µM (inactive)
GI50 (RXF 631): > 100 µM (inactive)
GI50 (XF498): > 100 µM (inactive)

Cc1cnc[nH]c1=O
GI50 (DLD-1): > 100 µM (inactive)
GI50 (DMS-114): > 100 µM (inactive)
GI50 (HOP-18): > 100 µM (inactive)
GI50 (M19-MEL): > 100 µM (inactive)
GI50 (RXF 631): > 100 µM (inactive)
GI50 (SNB-78): > 100 µM (inactive)

COc1cccc(-c2cc(=O)c3cc(C)c(C)c(C(=O)O)c3o2)c1
GI50 (DLD-1): > 100 µM (inactive)
GI50 (DMS-114): > 100 µM (inactive)
GI50 (M19-MEL): > 100 µM (inactive)
GI50 (RXF 631): > 100 µM (inactive)
GI50 (SNB-78): > 100 µM (inactive)
GI50 (XF498): > 100 µM (inactive)

COC(=O)C(=O)C(C(=O)C(=O)Nc1ccccc1C(N)=O)c1nc2ccc([N+](=O)[O-])cc2nc1O (centres undefined)
GI50 (DLD-1): > 100 µM (inactive)
GI50 (HOP-18): > 100 µM (inactive)
GI50 (M19-MEL): > 100 µM (inactive)
GI50 (RXF 631): > 100 µM (inactive)
GI50 (SNB-78): > 100 µM (inactive)
GI50 (XF498): > 100 µM (inactive)

Cc1cc(Cl)ccc1Nc1nc2c(s1)C(=O)c1ccccc1C2=O
GI50 (BT-549): 1530 nM (inactive)
GI50 (DLD-1): 5.45 µM (inactive)
GI50 (DMS-114): 2.2 µM (inactive)
GI50 (HOP-18): 3 µM (inactive)
GI50 (Hs-578T): 2390 nM (inactive)
GI50 (M19-MEL): 0.728 µM (active)
GI50 (RXF 631): 6.46 µM (inactive)
GI50 (SNB-78): 14.5 µM (inactive)

O=C(CC1SC(Nc2ccccc2Cl)=NC1=O)Nc1ccc(Cl)cc1Cl (centres undefined)
GI50 (DLD-1): > 100 µM (inactive)
GI50 (DMS-114): 78.2 µM (inactive)
GI50 (HOP-18): > 100 µM (inactive)
GI50 (M19-MEL): > 100 µM (inactive)
GI50 (RXF 631): > 100 µM (inactive)
GI50 (SNB-78): > 100 µM (inactive)
GI50 (XF498): > 100 µM (inactive)

CCC(C)SC1SCC2C(=O)N(C)C3(CC3C)C(=O)OCC(NC(=O)c3nc4ccccc4cc3O)C(=O)NC(C)C(=O)N(C)C1C(=O)N(C)C1(CC1C)C(=O)OCC(NC(=O)c1nc3ccccc3cc1O)C(=O)NC(C)C(=O)N2C (centres undefined)
GI50 (BT-549): 0.0435 nM (active)
GI50 (DLD-1): 0.0002 µM (active)
GI50 (DMS-114): 0.000107 µM (active)
GI50 (HOP-18): 0.000232 µM (active)
GI50 (Hs-578T): 0.0524 nM (active)
GI50 (M19-MEL): 3.3e-05 µM (active)
GI50 (RXF 631): 0.000195 µM (active)
GI50 (SNB-78): 0.01 µM (active)
GI50 (XF498): 5.07e-05 µM (active)

CCCCCCCCCCCCCCCCCc1nnc(N)o1
GI50 (DLD-1): > 100 µM (inactive)
GI50 (M19-MEL): > 100 µM (inactive)
GI50 (RXF 631): > 100 µM (inactive)
GI50 (SNB-78): > 100 µM (inactive)
GI50 (XF498): > 100 µM (inactive)

Cc1ccc(Oc2ccc([N+](=O)[O-])cc2[N+](=O)[O-])c(C)c1
GI50 (DLD-1): 56.4 µM (inactive)
GI50 (DMS-114): 26.2 µM (inactive)
GI50 (M19-MEL): 51.3 µM (inactive)
GI50 (RXF 631): 21.4 µM (inactive)
GI50 (SNB-78): 61.4 µM (inactive)
GI50 (XF498): 42.1 µM (inactive)

CSc1nc(NC2OCC(OC(C)=O)C(OC(C)=O)C2OC(C)=O)c(/N=C(\C)C(C)=O)c(=O)n1C (centres undefined)
GI50 (DLD-1): > 100 µM (inactive)
GI50 (DMS-114): > 100 µM (inactive)
GI50 (HOP-18): > 100 µM (inactive)
GI50 (M19-MEL): > 100 µM (inactive)
GI50 (RXF 631): > 100 µM (inactive)
GI50 (SNB-78): > 100 µM (inactive)
GI50 (XF498): > 100 µM (inactive)

O=C1OC(c2ccccc2)=N/C1=C\c1cc(Cl)ccc1Cl
GI50 (DLD-1): 33.8 µM (inactive)
GI50 (DMS-114): 49.8 µM (inactive)
GI50 (HOP-18): > 100 µM (inactive)
GI50 (M19-MEL): > 100 µM (inactive)
GI50 (RXF 631): 25 µM (inactive)
GI50 (SNB-78): 44.5 µM (inactive)

COc1ccc(/C=C\c2cc(OC)c(OC)c(OC)c2)cc1OCC(=O)O
GI50 (BT-549): 13500 nM (inactive)
GI50 (DLD-1): 7.45 µM (inactive)
GI50 (DMS-114): 4.16 µM (inactive)
GI50 (HOP-18): > 100 µM (inactive)
GI50 (Hs-578T): 2930 nM (inactive)
GI50 (M19-MEL): 4.55 µM (inactive)
GI50 (RXF 631): > 100 µM (inactive)
GI50 (SNB-78): 4.17 µM (inactive)

CSc1ccc2c(cc1=O)C(NC(=O)c1ccc(C#N)cc1)CCc1cc(O)c(O)c(O)c1-2 (centres undefined)
GI50 (DLD-1): 23.1 µM (inactive)
GI50 (DMS-114): 14.8 µM (inactive)
GI50 (M19-MEL): 11.9 µM (inactive)
GI50 (RXF 631): 49.8 µM (inactive)
GI50 (SNB-78): 5.58 µM (inactive)
GI50 (XF498): 26.8 µM (inactive)
